Measured values taken from US8093274B2, “Inhibitors of protein prenyltransferases” (The Regents of the University of California, priority 2006, dated 2012).

Legend:
Jurkat cells = assay: Proliferation of Jurkat cells; assay type: cell-based, human
Method: (§1) K562 cells are a cell line of human erythroleukemia cells. The K562 cells were treated with P3-E5, P5-H6 or GGTI-298 (a known GGTI compound illustrated in FIG. 27) for 72 hours and then cell number was counted using cell counting kit-8 (Dojindo, Gaithersburg, Md.). Cell viability relative to the DMSO control and the known GGTI compound is plotted in FIG. 23.
(§2) Panc-1 cells (Pancreatic cancer cell line) and Jurkat cells (T-cell leukemia) were treated with 12.5 μM of P5-H6 or 12.5 μM of mP5-H6a for 72 hours. The cell number was counted as described in Example 5.

[1] = system: geranylgeranylated Rheb (Rheb-CSVL) in HEK 293 cells; assay: Geranylgeranylation of Rheb-CVSL in HEK 293 cells, mobility shift on Western blot; assay type: cell-based, human; details: for inhibition of geranylgeranylation of Myc-HA tagged-Rheb-CVSL in cells: HEK 293 cells treated for 48 hours
Description: Finally, we investigated in vivo effects of compounds 22 (also known as UC-22) and 23 (also known as UC-23). Human embryonic kidney (HEK) 293 cells were transfected with the Rheb-CSVL construct that expresses the geranylgeranylated form of the Rheb protein. Inhibition of the geranylgeranylation of this protein can be detected from a shift in its mobility on SDS polyacrylamide gel; the unprocessed form appears as a slowly migrating band.
Human embryonic kidney (HEK) 293 cells expressing Myc-HA tagged-Rheb-CVSL (upper) or Myc-HA tagged-Rheb-WT (lower) were treated with P3-E5 for 48 hours and then lysed. The cell lysates were run on a SDS polyacrylamide gel and immunoblotted using anti-Myc or anti-Actin antibody. The descriptors P and U indicate processed and unprocessed Rheb, respectively.
Human embryonic kidney (HEK) 293 cells expressing Myc-HA tagged-Rheb-CVSL (upper) or Myc-HA tagged-Rheb-WT (lower) were treated with mP5-H6a (also referred to as mP5-H6), or GGTI-298 for 48 hours and then lysed. Lysates were run on a SDS polyacrylamide gel and immunoblotted with anti-Myc or anti-Actin antibody.

Panc-1 cells = assay: Proliferation of Panc-1 cells; assay type: cell-based, human
Method: as §1, §2

BT474 = assay: Proliferation of BT474 cells; assay type: cell-based, human
MiaPaCa2 = assay: Proliferation of MiaPaCa2 cells; assay type: cell-based, human
MDA-MB231 = assay: Proliferation of MDA-MB231 cells; assay type: cell-based, human
K562 cells [2] = assay: Proliferation of K562 cells, cell counting kit-8; assay type: cell-based, human; details: 72 hours; relative to DMSO control
Method: as §1

[3] = molecular target: GGTase I (substrate RhoA) (Homo sapiens, UniProt P49354+P53609); assay: GGTase I filter-binding assay with RhoA as substrate; assay type: biochemical
Method: The pilot library was screened for inhibitors of protein geranylgeranyltransferase type I. Protein prenyltransferase assays were carried out by using filter binding. Two different substrates, RhoA and K-Ras4B, were used for the assay. RhoA ends with the CaaL motif and is an exclusive substrate for GGTase I, while K-Ras4B ends with the CaaX motif and is modified by both GGTase I and FTase.
The % activity of GGTase I was determined as follows: a working solution that contained each compound in DMSO at the concentration of 1 mM was prepared. The working solution was added to GGTase I reaction mixture so that the final concentration of the compound is 50 μM. GGTase I activity was assayed by incubating [^3H]GGPP with K-Ras4B or RhoA protein in the presence of GGTase I and examining radioactivity incorporated into the substrate protein by spotting onto a filter paper. After washing with TCA, ethanol and acetone, the radioactivity retained on the filter was determined by the use of a scintillation counter. GGTase I activity in the presence of DMSO was taken as a 100% value and the activity in the presence of the compound was shown as percent activity compared with the 100% value. […] For 6-aryl-4-mercapto-N-sulfonyl-piperidine-3-carboxylic acid 11 the 4-mercapto substituent appeared critical to endowing GGTase inhibitory activity. […] 4-Chlorobenzylthio substituent was the next best; 12 compounds out of 21 containing the 4-chlorobenzylthio moiety were active. 4-Benzylthio substituent was also good; 7 piperidines out of 21 bearing 4-benzylthio group were active. […] 19 imines (C15>C12=C41>C40>C01=C11>C05=C10=C30=C35=C37=C38>C02, C03, C04, C06, C39=C43) out of 21 appeared in the GGTIs. […] This corresponds to 47 6-aryl-4-mercapto-N-sulfonyl-piperidine-3-carboxylic acids out of 357 compounds.
A collection of 138 heterocycles was screened for their ability to inhibit the activity of human GGTase-I to geranylgeranylate K-Ras4B or RhoA. Purified GGTase-1 was incubated with its substrate protein K-Ras4B or RhoA, [^3H]GGPP, and the 138 compounds. After 30 min, the degree of incorporation of tritiated geranylgeranyl groups was measured using a scintillation counter.
(§3) The GGTase-I assay was carried out using RhoA as a substrate protein, GGTase-I (JENA Bioscience) and [3H]geranylgeranyl pyrophosphate. Incubation was for 30 min at 37 C. GGTase-H (or RabGGTase) assay was carried out using YPT1 as a substrate protein, GGTase-H (Calbiochem, San Diego, Calif.) plus REP1 (Calbiochem) and [3H]geranylgeranyl pyrophosphate. Incubation was for 30 min at 37 C. FIGS. 20D-20F show the three dimensional structure of GGTase I (D), FTsse (E) and GGTase II (F) which can be obtained from X-ray diffraction studies of protein crystals.

[4] = molecular target: T1, protein farnesyltransferase (FTase) (Rattus norvegicus, UniProt Q02293+Q04631); assay: Protein farnesyltransferase assay with K-Ras4B and [3H]FPP; assay type: biochemical
T1 construct: purchased JENA Bioscience
Description: To further characterize the pilot library, inhibitors of protein farnesyltransferase were identified. This was accomplished by using K-Ras4B as a substrate protein, tritiated farnesylpyrophosphate ([^3H]FPP) and protein farnesyltransferase. See Finegold, A. A., Johnson, D. I., Farnsworth, C. C., Gelb, M. H., Judd, S. R., Glomset, J. A. and Tamanoi, F. (1991) Protein geranylgeranyltransferase of Saccharomyces cerevisiae is specific for Cys-Xaa-Xaa-Leu motif and requires the CDC43 gene product but not the DPRI gene product. Proc. Natl. Acad. Sci. USA 88, 4448-4452. […] On the other hand, the structure of the compounds P1-F11, P2-B7 and P2-E9 resemble those of GGTIs. The FTI P1-F11 resembles the GGTI P1-F10, while the FTI P2-B7 resembles the GGTI P2-C10. The FTI P2-E9 is similar to the GGTI P2-G3. Similarity of some GGTI and FTI compounds may point to common structural features between the two closely related enzymes. As described before, FTase and GGTase I have similar three-dimensional structures and a shared alpha subunit. On the other hand, FTase specific inhibitors may recognize a region(s) that is different between the two enzymes.
Varying concentrations of the two compounds were added to each enzyme reaction. The FTase (protein farnesyltransferase) assay was carried out using K-Ras4B as a substrate protein, FTase (JENA Bioscience, San Diego, Calif.) and […] pyrophosphate. Incubation was for 30 min at 37 C.

K562 cells [5] = assay: Cell cycle profile of K562 cells by flow cytometry; assay type: cell-based, human; details: 48 hours; 0 to 10 mM
Method: K562 cells were treated with indicated concentrations (mM) of P3-E5 (ranging from […]) or GGTI-298 (ranging from […]) for 48 hours. Cell cycle profiles were monitored by flow cytometry. Percentages of cells in each phase of the cell cycle are indicated by different colors. Red: G0/G1 phase. Black: S phase. Gray: G2/M phase.

GGTase-I = GGTase-I inhibition kinetics, double reciprocal plots; assay type: biochemical; details: varying GGPP with fixed RhoA
Method: as §3
The graphs in FIG. 21 show double reciprocal plots obtained from substrate velocity curves for the inhibition of GGTase-I by P3-E5 (left) and P5-H6 (right). The upper figures show varying GGPP concentrations with a fixed RhoA protein concentration were used. The lower figures show varying RhoA protein concentrations with a fixed GGPP concentration was used. The following scale was used to prepare the graphs: Y-axis: 1/v, fmol/min. X-axis: 1/s, mM.

| IC50 ([3]; FIG. 15, read-out: IC50 for the inhibition of GGTase I using RhoA as a substrate) [µM] | specificity of GGTase I inhibition ([3]; compared with FTase and GGTase-II, varying concentrations, FIGS. 20A-20C) | inhibition of FTase ([4]; at concentrations at which they inhibited GGTase-I by more than 90%) | SMILES | inhibition of proliferation of leukemic cell line Jurkat (Jurkat cells) | inhibition of growth of Jurkat cells relative to P5-H6 (Jurkat cells; 12.5 μM, 72 hours) | inhibition of geranylgeranylation of Myc-HA tagged-Rheb-CVSL in cells [1] | inhibition of proliferation of pancreatic cancer cell line Panc-I (Panc-1 cells) | inhibition of growth of Panc-1 cells relative to P5-H6 (Panc-1 cells; 12.5 μM, 72 hours) | inhibition of proliferation of breast cancer cell line BT474 (BT474) | inhibition of proliferation of pancreatic cancer cell line MiaPaCa2 (MiaPaCa2) | inhibition of proliferation of breast cancer cell line MDA-MB231 (MDA-MB231) | inhibition of proliferation of K562 cells (K562 cells [2]) | inhibition of geranylgeranylation of Rheb-CSVL within the cell ([1]; HEK 293 cells, FIG. 33) | inhibition of FTase activity ([4]; FIG. 16, concentration increased to 100 μM) | cell cycle effect in K562 cells (K562 cells [5]) | mode of inhibition of GGTase-I (GGTase-I) |
| --- | --- | --- | --- | --- | --- | --- | --- | --- | --- | --- | --- | --- | --- | --- | --- | --- |
|  |  |  | COC(=O)[C@H](Cc1ccccc1)NCC(=O)OCC1=C[C@@H](C(C)(C)C)N(S(=O)(=O)c2ccccc2C)C1c1ccc(Cl)cc1 (some centres unmarked) [mP5-H6] | inhibits proliferation | inhibits the growth of Panc-1 cells and Jurkat cells better than P5-H6 | inhibits geranylgeranylation in vivo | inhibits proliferation | inhibits the growth of Panc-1 cells and Jurkat cells better than P5-H6 | inhibits proliferation | inhibits proliferation | inhibits proliferation |  |  |  |  |  |
| 7 | specifically inhibit GGTase I | did not inhibit FTase | Cc1ccccc1S(=O)(=O)N1[C@@H](c2cccc(Cl)c2)C(C(=O)O)=CC[C@H]1c1ccc(Cl)cc1 (relative stereo) [P3-E5] |  |  | inhibits geranylgeranylation in cells |  |  |  |  |  | inhibit proliferation of K562 cells | inhibit geranylgeranylation within the cell | no inhibition of FTase activity was observed | induces G1 arrest in K562 cells | compete with a substrate protein but do not compete with GGPP |
